Measurements from PubChem BioAssay AID248 (DTP/NCI, 2004).
Where “and” joins values, the source holds several entries; their conditions need not be identical. Equal entries are not always repeated. Inconclusive results and toxic doses are left out. Rule as the data show it: active = T/C of 150% or more; inactive = T/C below 125%.

Test system: L1210 leukemia ip in BDF1 mice, survival T/C
Assay: NCI In Vivo Anticancer Drug Screen. Data for tumor model L1210 Leukemia (intraperitoneal) in B6D2F1 (BDF1) mice
Conditions: endpoint: mean survival time, higher = longer survival
How it was run: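 Transplantable tumor model; survival measured in treated vs vehicle control mice. Value = treated/control.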

[1] = dose: 100.0 mg/kg/injection, schedule: Q04DX003 (ip), vehicle: Klucel (hydroxypropylcellulose) (HPC)
[2] = dose: 200.0 mg/kg/injection, schedule: Q04DX003 (ip), vehicle: Klucel (hydroxypropylcellulose) (HPC)
[3] = dose: 400.0 mg/kg/injection, schedule: Q04DX003 (ip), vehicle: Klucel (hydroxypropylcellulose) (HPC)
[4] = dose: 50.0 mg/kg/injection, schedule: Q01DX009 (ip), vehicle: saline with Tween-80
[5] = dose: 100.0 mg/kg/injection, schedule: Q01DX009 (ip), vehicle: saline with Tween-80
[6] = dose: 100.0 mg/kg/injection, schedule: Q04DX003 (ip), vehicle: saline with Tween-80
[7] = dose: 200.0 mg/kg/injection, schedule: Q01DX009 (ip), vehicle: saline with Tween-80
[8] = dose: 200.0 mg/kg/injection, schedule: Q04DX003 (ip), vehicle: saline with Tween-80
[9] = dose: 400.0 mg/kg/injection, schedule: Q01DX009 (ip), vehicle: saline with Tween-80
[10] = dose: 400.0 mg/kg/injection, schedule: Q04DX003 (ip), vehicle: saline with Tween-80
[11] = dose: 100.0 mg/kg/injection, schedule: Q01DX009 (ip), vehicle: Klucel (hydroxypropylcellulose) (HPC)
[12] = dose: 200.0 mg/kg/injection, schedule: Q01DX009 (ip), vehicle: Klucel (hydroxypropylcellulose) (HPC)
[13] = dose: 50.0 mg/kg/injection, schedule: Q01DX009 (ip), vehicle: Klucel (hydroxypropylcellulose) (HPC)
[14] = dose: 400.0 mg/kg/injection, schedule: Q01DX009 (ip), vehicle: Klucel (hydroxypropylcellulose) (HPC)
[15] = dose: 100.0 mg/kg/injection, schedule: Q01DX001 (ip), vehicle: saline
[16] = dose: 200.0 mg/kg/injection, schedule: Q01DX001 (ip), vehicle: saline
[17] = dose: 400.0 mg/kg/injection, schedule: Q01DX001 (ip), vehicle: saline

Measured: T/C

O=[N+]([O-])c1ccc(/C=C/c2nccs2)o1
inactive: [1] 97 % of control | [2] 106 % of control | [3] 108 % of control

CCC/C=C(C)/C=N\NC(=O)c1ccc[n+](C)c1
inactive: [4] 93 % of control | [5] 97 % of control

O=C1OC(COCC#Cc2ccccc2)CN1c1ccccc1 (stereo unspecified)
inactive: [5] 105 % of control | [6] 95 % of control | [7] 106 % of control | [8] 101 % of control | [9] 103 % of control | [10] 100 % of control

CC(=O)c1cccc(NC(=O)Oc2ccc(Cl)cc2Cl)c1
inactive: [11] 101 % of control | [12] 110 % of control

CCCCOP(=S)(N1CCCCC1)N1CCCCC1
inactive: dose: 100.0 mg/kg/injection, schedule: Q04DX002 (ip), vehicle: saline with Tween-80 96 % of control | dose: 200.0 mg/kg/injection, schedule: Q04DX002 (ip), vehicle: saline with Tween-80 96 % of control | dose: 400.0 mg/kg/injection, schedule: Q04DX002 (ip), vehicle: saline with Tween-80 107 % of control

O=c1[nH]c(=O)c2nc[nH]c(=O)c2[nH]1
inactive: dose: 75.0 mg/kg/injection, schedule: Q01DX009 (ip), vehicle: Klucel (hydroxypropylcellulose) (HPC) 98 % of control | [1] 118 % of control | dose: 150.0 mg/kg/injection, schedule: Q01DX009 (ip), vehicle: Klucel (hydroxypropylcellulose) (HPC) 97 % of control | [2] 94 % of control | [3] 100 % of control

CCC(C)COC(=O)Nc1cccc(OC(=O)NC)c1 (stereo unspecified)
inactive: [6] 97 % of control | [8] 102 % of control | [10] 102 % of control

CCCCCCCCCCCCCCCC[N+]1(Cc2ccccc2)CCOCC1
inactive: [13] 99 % of control | [11] 99 % of control

CC(=O)c1cc(O)c2ccccc2c1O
inactive: dose: 100.0 mg/kg/injection, schedule: Q01DX001 (ip), vehicle: water 98 % of control | dose: 200.0 mg/kg/injection, schedule: Q01DX001 (ip), vehicle: water 89 % of control

O=c1ccc2ccccc2[nH]1
inactive: dose: 100.0 mg/kg/injection, schedule: Q01DX001 (ip), vehicle: Klucel (hydroxypropylcellulose) (HPC) 108 % of control | dose: 100.0 mg/kg/injection, schedule: Q01DX001 (ip), vehicle: other 105 % of control | dose: 200.0 mg/kg/injection, schedule: Q01DX001 (ip), vehicle: Klucel (hydroxypropylcellulose) (HPC) 111 % of control | dose: 200.0 mg/kg/injection, schedule: Q01DX001 (ip), vehicle: other 92 % of control | dose: 400.0 mg/kg/injection, schedule: Q01DX001 (ip), vehicle: Klucel (hydroxypropylcellulose) (HPC) 113 % of control

CCc1cc(C(=O)NC(CCC(=O)O)C(=O)O)ccc1NCc1cnc2nc(N)[nH]c(=O)c2n1 (stereo unspecified)
inactive: dose: 50.0 mg/kg/injection, schedule: Q01DX001 (ip), vehicle: saline with Tween-80 106 % of control | dose: 100.0 mg/kg/injection, schedule: Q01DX001 (ip), vehicle: saline with Tween-80 100 % of control | dose: 200.0 mg/kg/injection, schedule: Q01DX001 (ip), vehicle: saline with Tween-80 100 % of control

Cc1cnc(-n2cc(C)c(-c3ccccc3O)n2)nc1-c1ccccc1O
inactive: dose: 100.0 mg/kg/injection, schedule: Q04DX002 (ip), vehicle: Klucel (hydroxypropylcellulose) (HPC) 96 % of control | dose: 200.0 mg/kg/injection, schedule: Q04DX002 (ip), vehicle: Klucel (hydroxypropylcellulose) (HPC) 88 % of control | dose: 400.0 mg/kg/injection, schedule: Q04DX002 (ip), vehicle: Klucel (hydroxypropylcellulose) (HPC) 100 % of control

Cc1ccccc1N1OS(=O)(=O)CC1(C#N)c1ccccc1 (stereo unspecified)
inactive: [5] 98 % of control | [7] 102 % of control | [9] 96 % of control

Clc1ccc(/C(=[C](\[Hg]/[C](=C(\c2ccccc2)c2ccc(Cl)cc2)c2ccccc2)c2ccccc2)c2ccccc2)cc1
inactive: [11] 96 % of control | [1] 101 % of control | [12] 102 % of control | [2] 107 % of control | [14] 96 % of control | [3] 102 % of control

NS(=O)(=O)c1cc(Br)c(N=Nc2ccc(O)c3ncccc23)c(Br)c1
inactive: [15] 100 % of control | [16] 100 % of control | [17] 108 % of control

O=C1NC2(CCCCC2)C(=O)N1CCN(CCO)CCO
inactive: dose: 50.0 mg/kg/injection, schedule: Q01DX009 (ip), vehicle: saline 106 % of control | dose: 100.0 mg/kg/injection, schedule: Q01DX009 (ip), vehicle: saline 109 % of control | dose: 200.0 mg/kg/injection, schedule: Q01DX009 (ip), vehicle: saline 93 % of control | dose: 400.0 mg/kg/injection, schedule: Q01DX009 (ip), vehicle: saline 91 % of control

C[CH2][Hg][Cl]
inactive: dose: 12.5 mg/kg/injection, schedule: Q04DX002 (ip), vehicle: Klucel (hydroxypropylcellulose) (HPC) 97 % of control | dose: 25.0 mg/kg/injection, schedule: Q04DX002 (ip), vehicle: Klucel (hydroxypropylcellulose) (HPC) 94 % of control | [15] 97 % of control

CC(C)=CCN(CC=C(C)C)CCC(C#N)(c1ccc2ccccc2c1)C(C)C (stereo unspecified)
inactive: [13] 106 % of control | [11] 95 % of control | [1] 102 % of control | [2] 98 % of control

COc1ccc(C2(OC)Oc3ccccc3-c3nc4ccccc4nc32)cc1 (stereo unspecified)
inactive: dose: 50.0 mg/kg/injection, schedule: Q01DX001 (ip), vehicle: saline 95 % of control | [15] 95 % of control | [16] 87 % of control | [17] 95 % of control

O=P(Oc1ccccc1)(Oc1ccccc1)c1ccccc1
inactive: [1] 95 % of control | [2] 98 % of control | [3] 98 % of control

CN1CCCN(C)C1
inactive: [4] 100 % of control | [5] 100 % of control | [6] 93 % of control | [8] 88 % of control

CC(C)(C)C1CN1C(=S)Nc1ccccc1 (stereo unspecified)
inactive: [1] 104 % of control | [2] 105 % of control | [3] 102 % of control

CCOc1ccc(/C=N/NC(=O)C(O)c2ccccc2)cc1OC (stereo unspecified)
inactive: [5] 97 % of control | [7] 92 % of control | [9] 90 % of control

CN1C(=O)C2(c3ccccc31)C1CC3C(CO1)C1C2C3(CO)C[N+]1(C)C (stereo unspecified)
inactive: [15] 97 % of control | [16] 102 % of control

O=C1C(CCSc2ccccc2)C(=O)N(c2ccccc2)C1c1ccccc1 (stereo unspecified)
inactive: [11] 93 % of control | [12] 94 % of control | [14] 95 % of control

CC(=O)c1ccc(N=Nc2ccc(N(C)C)cc2)cc1
inactive: dose: 100.0 mg/kg/injection, schedule: Q01DX009 (ip), vehicle: carboxymethylcellulose (CMC) 100 % of control and 110 % of control | dose: 100.0 mg/kg/injection, schedule: Q04DX002 (ip), vehicle: carboxymethylcellulose (CMC) 100 % of control | dose: 100.0 mg/kg/injection, schedule: Q04DX003 (ip), vehicle: carboxymethylcellulose (CMC) 100 % of control | dose: 200.0 mg/kg/injection, schedule: Q01DX009 (ip), vehicle: carboxymethylcellulose (CMC) 98 % of control and 102 % of control | dose: 200.0 mg/kg/injection, schedule: Q04DX002 (ip), vehicle: carboxymethylcellulose (CMC) 93 % of control | dose: 200.0 mg/kg/injection, schedule: Q04DX003 (ip), vehicle: carboxymethylcellulose (CMC) 101 % of control | dose: 400.0 mg/kg/injection, schedule: Q01DX009 (ip), vehicle: carboxymethylcellulose (CMC) 95 % of control and 90 % of control | dose: 400.0 mg/kg/injection, schedule: Q04DX002 (ip), vehicle: carboxymethylcellulose (CMC) 88 % of control | dose: 400.0 mg/kg/injection, schedule: Q04DX003 (ip), vehicle: carboxymethylcellulose (CMC) 101 % of control

CC(CC(c1ccccc1)c1ccccc1)[N+](C)(C)C (stereo unspecified)
inactive: dose: 5.0 mg/kg/injection, schedule: Q01DX001 (ip), vehicle: carboxymethylcellulose (CMC) 104 % of control | dose: 10.0 mg/kg/injection, schedule: Q01DX001 (ip), vehicle: carboxymethylcellulose (CMC) 101 % of control | dose: 20.0 mg/kg/injection, schedule: Q01DX001 (ip), vehicle: carboxymethylcellulose (CMC) 95 % of control | dose: 40.0 mg/kg/injection, schedule: Q01DX001 (ip), vehicle: carboxymethylcellulose (CMC) 93 % of control | dose: 80.0 mg/kg/injection, schedule: Q01DX001 (ip), vehicle: carboxymethylcellulose (CMC) 98 % of control

Cc1cc(C)nc(NN=C2CC(C)(C)N(O)C(C)(C)C2)n1
inactive: dose: 25.0 mg/kg/injection, schedule: Q04DX003 (ip), vehicle: saline 96 % of control | dose: 50.0 mg/kg/injection, schedule: Q04DX003 (ip), vehicle: saline 98 % of control | dose: 100.0 mg/kg/injection, schedule: Q04DX003 (ip), vehicle: saline 102 % of control
